Measurements taken from patent publication US6180615A, “Propargyl phenyl ether A2A receptor agonists” (CV Therapeutics, Inc., priority 1999, dated 2001).

Biological target: T1, A2A receptor (Sus scrofa, UniProt K9IW67)
T1 construct: from tissue; host or cells: pig striatum membranes
Assay: affinity for the A2A receptor in a pig striatum membrane prep (displacement of tritiated antagonist ZM 241385)
Format: binding
Settings: pig striatal membranes, adenosine deaminase, 50 mM Tris pH 7.4, 2 nM tritiated ZM 241385, 23° C. for 2 h
Procedure: Compositions of this invention were assayed to determine their affinity for the A2A receptor in a pig striatum membrane prep. 0.2 mg of pig striatal membranes were treated with adenosine deaminase and 50 mM Tris buffer (pH=7.4) followed by mixing. To the pig membranes was added 2 μL of serially diluted DMSO stock solution of the compounds of this invention at concentrations ranging from 100 μM to 10 nM or the control received 2 μL of DMSO alone, then the tritiated antagonist ZM 241385 in Tris buffer (50 mM, pH of 7.4) was added to achieve a final concentration of 2 nM . After incubation at 23° C. for 2 h, the solutions were filtered using a membrane harvester using multiple washing of the membranes (3×). The filter disks where counted in scintillation cocktail affording the amount of displacement of tritiated ZM by the competitive binding compositions of this invention. Greater than a 5 point curve was used to generate IC50's and the number of experiments (n) is indicated in the column marked in Table 1 below.

T1 sequence (K9IW67 1-409): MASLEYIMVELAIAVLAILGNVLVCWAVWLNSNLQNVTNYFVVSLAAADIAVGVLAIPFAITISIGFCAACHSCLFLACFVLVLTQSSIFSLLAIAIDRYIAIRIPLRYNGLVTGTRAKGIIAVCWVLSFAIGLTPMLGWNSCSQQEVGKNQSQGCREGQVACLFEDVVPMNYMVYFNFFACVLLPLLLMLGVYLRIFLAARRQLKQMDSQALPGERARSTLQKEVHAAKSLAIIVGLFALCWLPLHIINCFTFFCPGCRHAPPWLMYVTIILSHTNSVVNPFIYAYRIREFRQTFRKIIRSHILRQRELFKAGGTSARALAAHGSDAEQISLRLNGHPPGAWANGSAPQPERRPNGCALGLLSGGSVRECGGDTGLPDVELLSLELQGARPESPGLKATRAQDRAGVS

SMILES | Ki
CC(C)(C)c1cc(OCC#Cc2nc(N)c3ncn([C@@H]4O[C@H](CO)[C@@H](O)[C@H]4O)c3n2)cc(C(C)(C)C)c1 [Compound 16, (4S,2R,3R,5R)-2-(6-amino-2-{3-[3,5-bis(tert-butyl)phenoxy]prop-1-ynyl}purin-9-yl)-5-(hydroxymethyl)oxolane-3,4-diol] | 1000 to 10000 nM
Nc1nc(C#CCOc2ccccc2-c2ccccc2)nc2c1ncn2[C@@H]1O[C@H](CO)[C@@H](O)[C@H]1O [Compound 10, (4S,2R,3R,5R)-2-{6-amino-2-[3-(2-phenylphenoxy)prop-1-ynyl]purin-9-yl}-5-(hydroxymethyl)oxolane-3,4-diol] | 100 to 1000 nM
Nc1nc(C#CCOc2ccc(-c3ccccc3)cc2)nc2c1ncn2[C@@H]1O[C@H](CO)[C@@H](O)[C@H]1O [Compound 13, (4S,2R,3R,5R)-2-{6-amino-2-[3-(4-phenylphenoxy)prop-1-ynyl]purin-9-yl}-5-(hydroxymethyl)oxolane-3,4-diol] | 1000 to 10000 nM

Next, values leading:

Ki | SMILES
10 to 100 nM | Nc1nc(C#CCOc2ccccc2)nc2c1ncn2[C@@H]1O[C@H](CO)[C@@H](O)[C@H]1O [Compound 11, (4S,2R,3R,5R)-2-[6-amino-2-(3-phenoxyprop-1-ynyl)purin-9-yl]-5-(hydroxymethyl)oxolane-3,4-diol]
10 to 100 nM | Nc1nc(C#CCOc2cccc3c2OCO3)nc2c1ncn2[C@@H]1O[C@H](CO)[C@@H](O)[C@H]1O [Compound 15, 2-[2-(3-(2H-benzo[2,3-d]1,3-dioxolen-4-yloxy)prop-1-ynyl)-6-aminopurin-9-yl](4S,2R,3R,5R)-5-(hydroxymethyl)oxolane-3,4-diol]
100 to 1000 nM | N#Cc1ccc(OCC#Cc2nc(N)c3ncn([C@@H]4O[C@H](CO)[C@@H](O)[C@H]4O)c3n2)cc1 [Compound 12, 4-(3-{9-[(4S,2R,3R,5R)-3,4-dihydroxy-5-(hydroxymethyl)oxolan-2-yl]-6-aminopurin-2-yl}prop-2-ynyloxy)benzenecarbonitrile]
100 to 1000 nM | Nc1nc(C#CCOc2ccccc2Cc2ccccc2)nc2c1ncn2[C@@H]1O[C@H](CO)[C@@H](O)[C@H]1O [Compound 14]
